How the values were obtained:
[1] = target: T1, HDAC3 (Homo sapiens, UniProt O15379); assay: HDAC enzyme assay, HDAC3; type: biochemical; details: enzyme and compound incubated 24 hours at room temperature
T1 construct: purchased BPS Biosciences
Method: (§1) Compounds for testing were diluted in DMSO to 50 fold the final concentration and a ten point three fold dilution series was made. The compounds were diluted in assay buffer (50 mM HEPES, pH 7.4, 100 mM KCl, 0.001% Tween-20, 0.05% BSA, 20 μM TCEP) to 6 fold their final concentration. The HDAC enzymes (purchased from BPS Biosciences) were diluted to 1.5 fold their final concentration in assay buffer. The tripeptide substrate and trypsin at 0.05 μM final concentration were diluted in assay buffer at 6 fold their final concentration. The final enzyme concentrations used in these assays were 3.3 ng/ml (HDAC1), 0.2 ng/ml (HDAC2) and 0.08 ng/ml (HDAC3). The final substrate concentrations used were 16 μM (HDAC1), 10 μM (HDAC2) and 17 μM (HDAC3). Five μl of compound and 20 μl of enzyme were added to wells of a black, opaque 384 well plate in duplicate. Enzyme and compound were incubated together at room temperature for 24 hours. Five μl of substrate was added to each well, the plate was shaken for 60 seconds and placed into a Victor 2 microtiter plate reader. The development of fluorescence was monitored for 60 min and the linear rate of the reaction was calculated. The IC50 was determined using Graph Pad Prism by a four parameter curve fit.

[2] = target: T2, HDAC1 (Homo sapiens, UniProt Q13547); assay: HDAC enzyme assay, HDAC1; type: biochemical; details: enzyme and compound incubated 24 hours at room temperature
T2 construct: purchased BPS Biosciences
Method: as §1

[3] = target: T3, HDAC2 (Homo sapiens, UniProt Q92769); assay: HDAC enzyme assay, HDAC2; type: biochemical; details: enzyme and compound incubated 24 hours at room temperature
T3 construct: purchased BPS Biosciences
Method: as §1

[4] = Pharmacokinetics in plasma and brain after IV administration; type: in vivo; details: IV 1 mg/kg, male C57BL/6 mice; for Kp / Cmax / Tmax / half-life / AUC(0-inf) / AUC(0-t) / MRT inf / clearance / Vd: mouse; for Kp: brain/plasma, read-out: AUCbrain/AUCplasma; for Vd: read-out: Vss
Method: Male C57Bl/6 mice were fasted overnight. Compounds of the invention were dissolved in dimethyl acetamide at 10 times the final concentration, then Solutol HS 15 (BASF) was added to a final concentration of 10%. Finally 80% saline was added and vortexed to achieve a clear solution. Fifteen animals were injected via the tail vein with 1 mg/kg compound. Blood was collected via retro orbital puncture into K2EDTA tubes at 5 minutes, 15 minutes, 30 minutes, 1 hour, 2 hours, 4 hours, 8 hours and 24 hours after dosing. The blood was centrifuged at 2000 g for 5 minutes at 4° C. to obtain plasma. The plasma was extracted with acetonitrile and the level of compound was analyzed by LC/MS/MS. The level of compound in plasma was calculated from a standard curve in mouse plasma. For brain levels, animals were sacrificed at 5 minutes, 15 minutes, 1 hour, 4 hours and 24 hours. Brains were removed and homogenized in acetonitrile and extracted. The level of compound in brain was calculated from a standard curve in mouse brain tissue. The IV clearance and area under the curve were calculated using WinNonLin software. The ratio of area under the curve for plasma and brain samples was calculated to produce the brain/plasma ratio.

[5] = Comparison of brain penetrance between quinolines and isoquinolines (IP dosing); type: in vivo; details: IP 5 mg/kg, C57Bl/6 mice; for Kp / AUC: mouse; for Kp: brain/plasma, read-out: ratio (AUC brain / AUC plasma); for AUC: plasma
Method: Comparator B (see Table 7) and Compound 2 were dosed in C57Bl/6 mice at 5 mg/kg in 10% DMAC/10% Solutol HS15/80% saline. Comparator A (see Table 7) was dosed at 5 mg/kg in 5% dextrose/water. All compounds were dosed IP. Mice were sacrificed at 5, 15, 30 minutes and 1, 2, 4, 8 and 24 hours after dosing. Plasma concentration of compound was determined at all time points by LC/MS/MS. Brain concentration was determined at 1, 4, 8 and 24 hours after dosing. The AUC was calculated using WinNonLin software. The results are shown in Table 7, where plasma AUC is expressed as hr*ng/mL and brain AUC is expressed as hr*ng/g.

T2 sequence (Q13547 whole entry): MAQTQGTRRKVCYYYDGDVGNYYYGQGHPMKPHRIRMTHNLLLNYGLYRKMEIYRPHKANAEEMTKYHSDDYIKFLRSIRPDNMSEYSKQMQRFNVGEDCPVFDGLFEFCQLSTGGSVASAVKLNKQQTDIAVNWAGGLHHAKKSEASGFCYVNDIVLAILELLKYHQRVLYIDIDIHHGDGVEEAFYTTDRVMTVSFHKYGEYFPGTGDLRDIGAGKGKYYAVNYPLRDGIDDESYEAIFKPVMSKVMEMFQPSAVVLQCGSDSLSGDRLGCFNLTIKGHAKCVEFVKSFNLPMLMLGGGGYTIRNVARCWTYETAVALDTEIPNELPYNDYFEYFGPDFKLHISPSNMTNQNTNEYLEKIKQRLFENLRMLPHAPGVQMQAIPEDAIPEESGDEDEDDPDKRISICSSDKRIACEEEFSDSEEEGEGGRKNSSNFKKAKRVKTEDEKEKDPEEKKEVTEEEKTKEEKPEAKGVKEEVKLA
T1 sequence (O15379 whole entry): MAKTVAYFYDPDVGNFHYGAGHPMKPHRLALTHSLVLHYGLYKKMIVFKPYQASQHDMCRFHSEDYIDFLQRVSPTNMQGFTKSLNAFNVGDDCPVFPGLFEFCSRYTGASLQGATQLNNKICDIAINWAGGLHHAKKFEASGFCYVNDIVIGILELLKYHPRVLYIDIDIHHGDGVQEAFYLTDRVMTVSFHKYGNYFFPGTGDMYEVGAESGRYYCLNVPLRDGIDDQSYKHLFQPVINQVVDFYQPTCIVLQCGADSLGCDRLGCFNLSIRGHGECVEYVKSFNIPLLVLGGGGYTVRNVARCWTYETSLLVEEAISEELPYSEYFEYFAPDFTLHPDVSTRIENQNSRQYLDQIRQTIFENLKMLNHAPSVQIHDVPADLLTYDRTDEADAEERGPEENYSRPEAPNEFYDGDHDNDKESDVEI
T1 sequence (Q9Y618 395-489 partner limits assumed): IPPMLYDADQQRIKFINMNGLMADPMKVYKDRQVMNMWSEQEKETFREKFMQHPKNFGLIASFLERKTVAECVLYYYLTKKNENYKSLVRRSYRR
T3 sequence (Q92769 whole entry): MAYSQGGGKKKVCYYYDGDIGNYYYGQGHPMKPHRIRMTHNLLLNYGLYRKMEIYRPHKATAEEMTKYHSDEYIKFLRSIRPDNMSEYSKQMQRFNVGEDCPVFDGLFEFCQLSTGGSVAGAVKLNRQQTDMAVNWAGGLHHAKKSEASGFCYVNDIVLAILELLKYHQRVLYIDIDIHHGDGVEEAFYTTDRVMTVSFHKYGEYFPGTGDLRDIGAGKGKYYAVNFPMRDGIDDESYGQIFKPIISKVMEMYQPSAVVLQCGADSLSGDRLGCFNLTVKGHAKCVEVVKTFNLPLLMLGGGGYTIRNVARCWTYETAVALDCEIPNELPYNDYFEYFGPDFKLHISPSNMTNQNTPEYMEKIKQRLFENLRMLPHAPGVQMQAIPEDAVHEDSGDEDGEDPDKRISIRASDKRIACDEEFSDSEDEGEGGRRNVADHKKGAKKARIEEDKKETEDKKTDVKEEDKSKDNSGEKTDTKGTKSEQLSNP

Compound | IC50 [1] [nM] | IC50 [2] [nM] | IC50 [3] [nM] | AUCINF ([4]; brain) [ng·h/g] | AUClast ([4]; brain) [ng·h/g] | Kp [4] | Cmax ([4]; brain) [ng/g] | Tmax ([4]; brain) [h] | half-life ([4]; brain) [h] | AUC(0-inf) ([4]; plasma, PK cassette) [ng·h/mL] | AUC(0-t) ([4]; plasma, PK cassette) [ng·h/mL] | MRT inf ([4]; plasma, PK cassette) [h] | clearance ([4]; plasma, PK cassette) [mL/min/kg] | half-life ([4]; plasma, PK cassette) [h] | Vd ([4]; plasma, PK cassette) [L/kg] | AUC brain [5] [ng·h/g] | Kp [5] | AUC [5] [ng·h/mL] | brain penetrance (from brain/plasma AUC ratios) [4]
Nc1ccc(-c2cccs2)cc1NC(=O)c1cc2ccc(NC(=O)C3CCCN3)cc2cn1 (centres unmarked) [Compound 6] | 121 | 5 | 19 |  |  |  |  |  |  |  |  |  |  |  |  |  |  |  | 
Nc1ccc(-c2ccccc2)cc1NC(=O)c1cc2ccc(N3CCNCC3=O)cc2cn1 [Compound 4] | 182 | 6 | 8 | 390 | 319 | 0.1 | 145 | 0.25 | 1.66 | 3820 | 3470 | 8.72 | 4.37 | 7.71 | 2.28 |  |  |  | 
CN(C)CCNc1ccc2cc(C(=O)Nc3cc(-c4cccs4)ccc3N)ncc2c1 [Compound 5] | 19 | 2 | 6 |  |  |  |  |  |  |  |  |  |  |  |  |  |  |  | 
Nc1ccc(-c2ccc(F)cc2)cc1NC(=O)c1cc2ccc(N3CCNCC3)cc2cn1 [Compound 9] |  |  |  | 9607 | 9444 | 10.3 | 1000 | 1 | 4.4 |  |  |  |  |  |  |  |  |  | highly brain penetrant
CN1CCCC1C(=O)Nc1ccc2cc(C(=O)Nc3cc(-c4cccs4)ccc3N)ncc2c1 (centres unmarked) [Compound 7] | 66 | 3 | 10 |  |  |  |  |  |  |  |  |  |  |  |  |  |  |  | 

Now from value to compound:

IC50 [1] [nM] | IC50 [2] [nM] | IC50 [3] [nM] | AUCINF ([4]; brain) [ng·h/g] | AUClast ([4]; brain) [ng·h/g] | Kp [4] | Cmax ([4]; brain) [ng/g] | Tmax ([4]; brain) [h] | half-life ([4]; brain) [h] | AUC(0-inf) ([4]; plasma, PK cassette) [ng·h/mL] | AUC(0-t) ([4]; plasma, PK cassette) [ng·h/mL] | MRT inf ([4]; plasma, PK cassette) [h] | clearance ([4]; plasma, PK cassette) [mL/min/kg] | half-life ([4]; plasma, PK cassette) [h] | Vd ([4]; plasma, PK cassette) [L/kg] | AUC brain [5] [ng·h/g] | Kp [5] | AUC [5] [ng·h/mL] | brain penetrance (from brain/plasma AUC ratios) [4] | Compound
74 | 7 | 8 | 1439 | 1237 | 1.8 | 126 | 0.25 | 8.63 | 799 | 770 | 5.45 | 20.8 | 5.68 | 6.82 |  |  |  |  | Nc1ccc(-c2ccncc2)cc1NC(=O)c1cc2ccc(N3CCNCC3)cc2cn1 [Compound 3]
43 | 3 | 10 | 13461 | 11474 | 8.33 | 783 | 1 | 9.3 | 1620 | 1560 | 6.97 | 10.3 | 5.29 | 4.31 | 23283 | 7.2 | 3230 | highly brain penetrant | Nc1ccc(-c2cccs2)cc1NC(=O)c1cc2ccc(N3CCNCC3)cc2cn1 [Compound 2]
 |  |  |  |  |  |  |  |  |  |  |  |  |  |  | 655 | 0.06 | 10800 |  | Nc1ccc(-c2cccs2)cc1NC(=O)c1cnc2cc(N3CCNCC3)ccc2c1 [Comparator B]
 |  |  |  |  |  |  |  |  |  |  |  |  |  |  | 2092 | 0.16 | 12900 |  | Nc1ccc(-c2cccs2)cc1NC(=O)c1ccc2nc(N3CCNCC3)ccc2c1 [Comparator A]

Reference: patent US20170240535A1, “HDAC1/2 INHIBITORS FOR THE TREATMENT OF NEURODEGENERATIVE AND/OR COGNITIVE DISORDERS” (Regenacy Pharmaceuticals, LLC, priority 2016, published 2017)
